Patent US10934277B2, “Enantiomerically purified GPER agonist for use in treating disease states and conditions” (Linnaeus Therapeutics, Inc., priority 2018, dated 2021)
Where “and” joins values, the source holds several entries; their conditions need not be identical. Equal values may be shown once.

What was measured:
OATP1B1 = biological target: T1, OATP1B1 (Homo sapiens, UniProt Q9Y6L6); test: Drug transporter fluorometric inhibition, OATP1B1; type: in vitro ADME
T1 sequence (Q9Y6L6 1-691): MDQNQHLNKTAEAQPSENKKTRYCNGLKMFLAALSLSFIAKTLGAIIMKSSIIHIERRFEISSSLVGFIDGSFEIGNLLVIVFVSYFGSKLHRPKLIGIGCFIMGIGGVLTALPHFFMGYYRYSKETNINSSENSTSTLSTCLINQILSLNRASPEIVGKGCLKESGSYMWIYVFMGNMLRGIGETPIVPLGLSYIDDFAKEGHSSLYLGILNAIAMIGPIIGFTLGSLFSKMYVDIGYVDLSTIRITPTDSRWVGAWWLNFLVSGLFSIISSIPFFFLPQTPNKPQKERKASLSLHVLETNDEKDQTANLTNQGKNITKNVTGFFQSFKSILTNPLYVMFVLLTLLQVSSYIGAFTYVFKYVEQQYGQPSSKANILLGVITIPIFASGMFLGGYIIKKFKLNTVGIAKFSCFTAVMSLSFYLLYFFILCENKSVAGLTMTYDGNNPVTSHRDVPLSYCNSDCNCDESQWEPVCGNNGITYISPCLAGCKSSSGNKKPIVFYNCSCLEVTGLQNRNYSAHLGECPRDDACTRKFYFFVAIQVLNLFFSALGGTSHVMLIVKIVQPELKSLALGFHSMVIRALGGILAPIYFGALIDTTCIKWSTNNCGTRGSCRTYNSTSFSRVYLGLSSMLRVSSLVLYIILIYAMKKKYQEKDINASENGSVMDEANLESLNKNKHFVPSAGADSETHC
Experimental: Drug transporter (fluorometric inhibition)
The percent of control was calculated using the following equation. The percent of inhibition was calculated by subtracting the percent of control from 100. The IC50 value (concentration causing a half-maximal inhibition of the control value) was determined by non-linear regression analysis of the concentration-response curve using the Hill equation.
Compound is the individual reading in the presence of the test compound. T1 is the mean reading in the absence of the test compound. Background (for P-gp and BCRP) is the mean reading in the presence of the highest effective concentration of the reference inhibitor. Background (for OATP1B1, OATP1B3, OAT1, OAT3, and OCT2) is the mean reading in the absence of both the test compound and the substrate.

CYP1A2 = test: Cytochrome P450 induction in hepatocytes, CYP1A2; type: in vitro ADME; settings: hepatocytes from three different human cell lines; 1 μM, 10 μM and 100 μM
YUMM1.7 melanoma cells = test: YUMM1.7 proliferation assay (4 day growth); type: cell-based; settings: 500 nM; for doubling compared with that seen with the vehicle / Doublings: 4 days; for Doublings / cell count after 4 days of growth (single replicates) / average cell count after 4 days of growth: starting cell number 15,000; for cell count after 4 days of growth (single replicates): 5 replicates; for average cell count after 4 days of growth: average of 5 replicates
Experimental: YUMM1.7 cells were cultured for at least 1 passage after thawing and were cultured in DMEM with 5% FBS (Invitrogen) and 1% antibiotic-antimycotic (gibco) at 37C 5% CO2. Proliferation assays were performed by plating 15,000 cells in 12-well plates with 5 replicates per condition tested. Media and drugs were refreshed on Day 2. On Day 4, cells were trypsinized using 0.25 ml 0.05% Trypsin with EDTA (Invitrogen) for 5 minutes to detach from the plate, mixed with 0.75 ml of culture media, and counted using a hemocytometer.
Starting cell numbers were 15,000.

AR = biological target: T2, AR (Homo sapiens, UniProt P10275); test: Off target selectivity assay, Nuclear Hormone Receptor AR
T2 sequence (P10275 1-920): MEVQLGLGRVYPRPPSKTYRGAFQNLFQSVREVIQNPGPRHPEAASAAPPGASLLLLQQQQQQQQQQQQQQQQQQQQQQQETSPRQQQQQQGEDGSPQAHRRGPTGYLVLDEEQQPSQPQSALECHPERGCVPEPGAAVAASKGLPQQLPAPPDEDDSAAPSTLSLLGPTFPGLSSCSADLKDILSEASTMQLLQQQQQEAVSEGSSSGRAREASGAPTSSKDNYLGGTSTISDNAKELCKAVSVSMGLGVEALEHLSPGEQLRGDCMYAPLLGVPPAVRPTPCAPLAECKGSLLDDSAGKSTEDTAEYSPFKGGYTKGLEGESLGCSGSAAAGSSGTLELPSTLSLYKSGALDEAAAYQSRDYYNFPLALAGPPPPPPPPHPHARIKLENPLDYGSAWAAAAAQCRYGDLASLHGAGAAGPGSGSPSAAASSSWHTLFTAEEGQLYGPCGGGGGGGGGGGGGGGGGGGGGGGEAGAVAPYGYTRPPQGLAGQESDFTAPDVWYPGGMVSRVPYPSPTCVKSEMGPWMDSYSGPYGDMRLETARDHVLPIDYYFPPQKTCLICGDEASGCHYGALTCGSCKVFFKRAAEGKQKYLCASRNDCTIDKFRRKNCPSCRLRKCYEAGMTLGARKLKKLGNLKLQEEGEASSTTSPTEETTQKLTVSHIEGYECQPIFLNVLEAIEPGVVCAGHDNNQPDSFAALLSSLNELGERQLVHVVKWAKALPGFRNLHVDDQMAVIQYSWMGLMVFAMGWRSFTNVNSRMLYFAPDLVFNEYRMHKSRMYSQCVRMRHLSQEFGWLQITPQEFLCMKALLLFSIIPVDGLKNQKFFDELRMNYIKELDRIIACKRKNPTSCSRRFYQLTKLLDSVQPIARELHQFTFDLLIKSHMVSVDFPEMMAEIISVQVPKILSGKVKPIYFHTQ

ADRA2A = biological target: T3, ADRA2A (Homo sapiens, UniProt P08913); test: Off target selectivity assay, ADRA2A; type: cell-based; settings: dose response, concentrations up to 10 μM; read-out: IC50 or EC50 on ADRA2A
T3 sequence (P08913 1-465): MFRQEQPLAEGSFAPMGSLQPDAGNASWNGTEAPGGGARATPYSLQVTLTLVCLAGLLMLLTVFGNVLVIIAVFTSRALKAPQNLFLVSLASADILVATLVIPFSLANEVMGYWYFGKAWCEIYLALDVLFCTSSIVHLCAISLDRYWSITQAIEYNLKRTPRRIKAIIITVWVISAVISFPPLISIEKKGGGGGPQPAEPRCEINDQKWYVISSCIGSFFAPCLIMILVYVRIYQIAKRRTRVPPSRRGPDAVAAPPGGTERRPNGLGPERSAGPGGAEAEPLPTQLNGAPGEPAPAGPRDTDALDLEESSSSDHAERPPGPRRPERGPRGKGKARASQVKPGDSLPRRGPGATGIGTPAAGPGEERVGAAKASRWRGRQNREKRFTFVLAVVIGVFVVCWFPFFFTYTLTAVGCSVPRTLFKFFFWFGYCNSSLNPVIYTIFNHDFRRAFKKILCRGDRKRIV
Experimental: Final assay vehicle concentration was 1%.
For Gi coupled GPCRs, EC80 forskolin was included.
DMSO concentration for all readouts is ≤0.2%.
Probenicid was prepared fresh. Cells were loaded with dye prior to testing.

SMILES: CC(=O)c1ccc2c(c1)[C@@H]1C=CC[C@@H]1[C@H](c1cc3c(cc1Br)OCO3)N2 (single isomer, unassigned) [SRR G-1]
- inhibition at 10 µM (OATP1B1): 82.5%
- CYP1A2 induction (CYP1A2): induced at both 1 μM and 10 μM in only 1 of the 3 cell lines
- doubling compared with that seen with the vehicle (YUMM1.7 melanoma cells): less than 1/10
- Doublings (YUMM1.7 melanoma cells): 0.6
- cell count after 4 days of growth (single replicates) (YUMM1.7 melanoma cells): 2 tens of thousands (3×) and 3 tens of thousands (2×)
- average cell count after 4 days of growth (YUMM1.7 melanoma cells): 2.4 tens of thousands

SMILES: CC(=O)c1ccc2c(c1)[C@H]1C=CC[C@H]1[C@@H](c1cc3c(cc1Br)OCO3)N2 [RSS G-1, 1-((3aR,4S,9bS)-4-(6-bromobenzo[d][1,3]dioxol-5-yl)-3a,4,5,9b-tetrahydro-3H-cyclopenta[c]quinolin-8-yl)ethan-1-one]
- inhibition at 10 µM (OATP1B1): 91.2%
- IC50 (AR): 4.76 µM
- CYP1A2 induction (CYP1A2): induced at both 10 μM and 100 μM in 2 of the 3 cell lines
- IC50 (ADRA2A): 2.07 µM
- doubling compared with that seen with the vehicle (YUMM1.7 melanoma cells): approximately the same number of doublings as the vehicle
- Doublings (YUMM1.7 melanoma cells): 7.9
- cell count after 4 days of growth (single replicates) (YUMM1.7 melanoma cells): 83 tens of thousands and 94 tens of thousands and 79 tens of thousands and 111 tens of thousands and 107 tens of thousands
- average cell count after 4 days of growth (YUMM1.7 melanoma cells): 94.8 tens of thousands
